According to patent publication US20050004092A1, “Penem derivatives and antimicrobial agent containing the same” (DAIICHI SUNTORY PHARMA CO., LTD., priority 1995, published 2005):
≈ marks a conversion by molar mass, not a printed value. Read-outs that look alike come from different tables or passages of the source.

Legend:
Experiment in all cases: antibacterial activity (MIC), standard in vitro dilution test
[1] = tested on: MRSA 31 high-resist. (IPM resist.); type: cell-based, Staphylococcus aureus; conditions: for MIC: Staphylococcus aureus, MRSA, read-out: MIC, MRSA 31 high-resist. (IPM resist.)
Text: (§1) With respect to certain compounds (I) of the present invention, their general antibacterial activities and their antibacterial activities (MIC) against various methicillin-resistant strains of Staphylococcus aureus (methicillin-resistant Staphylococcus aureus: MRSA) were investigated. The results will be shown next.
(§2) Of the investigations, the general antibacterial activities were investigated by a standard in vitro dilution test.
(§3) As test bacteria, Staphylococcus aureus 209P JC-1, Escherichia coli NIHJ JC-2 and MRSAs were used.

[2] = tested on: MRSA 33 high-resist. (IPM resist.); type: cell-based, Staphylococcus aureus; conditions: for MIC: Staphylococcus aureus, MRSA, read-out: MIC, MRSA 33 high-resist. (IPM resist.)
Text: as §1, §2, §3

[3] = tested on: Escherichia coli NIHJ JC-2 strain; type: cell-based; conditions: for MIC, Escherichia coli NIHJ JC-2 strain: test bacterium strain 10^5 cfu/ml; for MIC: Escherichia coli
Text: as §1, §2, §3

[4] = tested on: Staphylococcus aureus 209P JC-1 strain; type: cell-based; conditions: for MIC: Staphylococcus aureus, 209P, read-out: MIC, Staphylococcus aureus 209P JC-1 strain
Text: as §1, §2, §3

[5] = test bacterium strain 10^5 cfu/ml
[6] = NIHJJC2, test bacterium strain 10^5 cfu/ml, read-out: MIC, Escherichia coli NIHJ JC-2 strain

SMILES	MIC [1, 5]	MIC [2, 5]	MIC [3, 6]	MIC [4, 5]	other results
C=CCN1CCC(SC2=C(C(=O)O)N3C(=O)[C@@H]([C@@H](O)CC)[C@H]3S2)C1 (stereo partly drawn) [Ex. 17, (5R,6R)-2-(1-allyl-3-pyrrolidine)-thio-6-((S)-1-hydroxypropyl)penem-3-carboxylic acid]					MIC, MRSA 31 high-resist. (IPM resist.) [1, 5]: 3.13 µg/mL (≈ 8.45 µM); MIC, MRSA 33 high-resist. (IPM resist.) [2, 5]: 3.13 µg/mL (≈ 8.45 µM); MIC, Escherichia coli NIHJ JC-2 strain [3]: 0.39 µg/mL (≈ 1.05 µM); MIC, Staphylococcus aureus 209P JC-1 strain [4, 5]: 0.10 µg/mL (≈ 0.27 µM)
C=CCN1CCC(SC2=C(C(=O)O)N3C(=O)[C@@H]([C@@H](O)CC)[C@H]3S2)C1 (stereo partly drawn) [Ex. 18, (5R,6R)-2-(1-allyl-3-pyrrolidine)-thio-6-((S)-1-hydroxypropyl)penem-3-carboxylic acid]					MIC, MRSA 31 high-resist. (IPM resist.) [1, 5]: 3.13 µg/mL (≈ 8.45 µM); MIC, MRSA 33 high-resist. (IPM resist.) [2, 5]: 3.13 µg/mL (≈ 8.45 µM); MIC, Escherichia coli NIHJ JC-2 strain [3]: 0.39 µg/mL (≈ 1.05 µM); MIC, Staphylococcus aureus 209P JC-1 strain [4, 5]: ≦0.025 μg/ml
CC[C@H](O)[C@]1(C(=O)O)C(=O)N2C=C(S[C@H]3CCN(Cc4ccccc4)C3)S[C@@H]21 [Ex. 44, (5R,6R)-2-((S)-1-benzylpyrrolidin-3-yl)thio-6-((S)-1-hydroxypropyl)penem-6-carboxylic acid]	3.13 µg/mL (≈ 7.44 µM)	3.13 µg/mL (≈ 7.44 µM)	3.13 µg/mL (≈ 7.44 µM)	0.1 µg/mL (≈ 0.238 µM)	
CC[C@H](O)[C@@H]1C(=O)N2C(C(=O)O)=C(S[C@H]3CCN(C(C)=N)C3)S[C@H]12 [Ex. 103, (5R,6R)-2-((S)-1-(1-iminoethyl)-pyrrolidin-3-yl)thio-6-((S)-1-hydroxypropyl)-penem-3-carboxylic acid]	3.13 µg/mL (≈ 8.43 µM)	3.13 µg/mL (≈ 8.43 µM)	0.39 µg/mL (≈ 1.05 µM)	0.1 µg/mL (≈ 0.269 µM)	
CC[C@H](O)[C@@H]1C(=O)N2C(C(=O)O)=C(SC3CCN(c4ccccc4)C3)S[C@H]12 (stereo partly drawn) [Ex. 105, (5R,6R)-6-((S)-1-hydroxypropyl)-2-(1-phenylpyrrolidin-3-yl)thiopenem-3-carboxylic acid]	1.56 µg/mL (≈ 3.84 µM)	1.56 µg/mL (≈ 3.84 µM)	> 12.5 µg/mL	0.1 µg/mL (≈ 0.246 µM)	
CC[C@H](O)[C@@H]1C(=O)N2C(C(=O)O)=C(S[C@H]3CCN(C[C@@H](O)c4ccccc4)C3)S[C@H]12 [Ex. 107, (5R,6R)-6-((S)-1-hydroxypropyl)-2-(1-((S)-2-hydroxy-2-phenylethyl)pyrrolidin-3-yl)thiopenem-3-carboxylic acid]	6.25 µg/mL (≈ 13.9 µM)	6.25 µg/mL (≈ 13.9 µM)	1.56 µg/mL (≈ 3.46 µM)	0.1 µg/mL (≈ 0.222 µM)	
CC[C@H](O)[C@@H]1C(=O)N2C(C(=O)O)=C(S[C@H]3CCN(CC(=O)c4ccccc4)C3)S[C@H]12 [Ex. 111, (5R,6R)-6-((S)-1-hydroxypropyl)-2-((S)-1-phenacylpyrrolidin-3-yl)thiopenem-3-carboxylic acid]	3.13 µg/mL (≈ 6.98 µM)	3.13 µg/mL (≈ 6.98 µM)	0.2 µg/mL (≈ 0.446 µM)	0.1 µg/mL (≈ 0.223 µM)	
CC[C@H](O)[C@@H]1C(=O)N2C(C(=O)O)=C(S[C@H]3CCN(CC(=O)c4ccc(F)cc4)C3)S[C@H]12 [Ex. 112, (5R,6R)-2-((S)-1-(2-p-fluorophenyl-2-oxoethyl)pyrrolidin-3-yl)thio-6-((S)-1-hydroxypropyl)penem-3-carboxylic acid]	6.25 µg/mL (≈ 13.4 µM)	6.25 µg/mL (≈ 13.4 µM)	0.78 µg/mL (≈ 1.67 µM)	0.1 µg/mL (≈ 0.214 µM)	
CC[C@H](O)[C@@H]1C(=O)N2C(C(=O)O)=C(S[C@H]3CCN(CC(=O)c4ccc(C)cc4)C3)S[C@H]12 [Ex. 113, (5R,6R)-6-((S)-1-hydroxypropyl)-2-((S)-1-(2-oxo-2-p-tolylethyl)pyrrolidin-3-yl)-thiopenem-3-carboxylic acid]	6.25 µg/mL (≈ 13.5 µM)	6.25 µg/mL (≈ 13.5 µM)	0.39 µg/mL (≈ 0.843 µM)	0.1 µg/mL (≈ 0.216 µM)	
CC[C@H](O)[C@@H]1C(=O)N2C(C(=O)O)=C(S[C@H]3CCN(CC(=O)c4ccc(OC)cc4)C3)S[C@H]12 [Ex. 114, (5R,6R)-6-((S)-1-hydroxypropyl)-2-((S)-1-(2-p-methoxyphenyl-2-oxoethyl)pyrrolidin-3-yl)thiopenem-3-carboxylic acid]	6.25 µg/mL (≈ 13.1 µM)	6.25 µg/mL (≈ 13.1 µM)	0.2 µg/mL (≈ 0.418 µM)	0.2 µg/mL (≈ 0.418 µM)	
CC[C@H](O)[C@@H]1C(=O)N2C(C(=O)O)=C(S[C@H]3CCN(CCC(=O)c4ccccc4)C3)S[C@H]12 [Ex. 116, (5R,6R)-2-((S)-1-(2-benzoylethyl)-pyrrolidin-3-yl)thio-6-((S).-1-hydroxypropyl)-penem-3-carboxylic acid]	3.13 µg/mL (≈ 6.77 µM)	3.13 µg/mL (≈ 6.77 µM)	0.2 µg/mL (≈ 0.432 µM)	0.05 µg/mL (≈ 0.108 µM)	
CC[C@H](O)[C@@H]1C(=O)N2C(C(=O)O)=C(S[C@H]3CCN(C(C)C(=O)c4ccccc4)C3)S[C@H]12 (stereo partly shown) [Ex. 117]					MIC [1]: 6.25 µg/mL (≈ 13.5 µM); MIC [2]: 6.25 µg/mL (≈ 13.5 µM); MIC ([3]; NIHJJC2, read-out: MIC, Escherichia coli NIHJ JC-2 strain): 1.56 µg/mL (≈ 3.37 µM); MIC [4]: 0.1 µg/mL (≈ 0.216 µM)
CC[C@H](O)[C@@H]1C(=O)N2C(C(=O)O)=C(S[C@H]3CCN(Cc4ccccn4)C3)S[C@H]12 [Ex. 123, (5R,6R)-6-((S)-1-hydroxypropyl)-2-((S)-1-(2-pyridylmethyl)pyrrolidin-3-yl)thiopenem-3-carboxylic acid]	6.25 µg/mL (≈ 14.8 µM)	6.25 µg/mL (≈ 14.8 µM)	3.13 µg/mL (≈ 7.43 µM)	0.2 µg/mL (≈ 0.474 µM)	
CC[C@H](O)[C@@H]1C(=O)N2C(C(=O)O)=C(SC3CCCN(Cc4ccccc4)C3)S[C@H]12 (stereo partly shown) [Ex. 125*^4]	6.25 µg/mL (≈ 14.4 µM)	6.25 µg/mL (≈ 14.4 µM)	12.5 µg/mL (≈ 28.8 µM)	0.2 µg/mL (≈ 0.46 µM)	
CC[C@H](O)[C@@H]1C(=O)N2C(C(=O)O)=C(SCc3ccccn3)S[C@H]12 [Ex. 129, (5R,6R)-6-((S)-1-hydroxypropyl)-2-(2-pyridylmethyl)thiopenem-3-carboxylic acid]	6.25 µg/mL (≈ 17.7 µM)	6.25 µg/mL (≈ 17.7 µM)	6.25 µg/mL (≈ 17.7 µM)	0.2 µg/mL (≈ 0.567 µM)	
CC[C@H](O)[C@@H]1C(=O)N2C(C(=O)O)=C(SCCNC(C)=N)S[C@H]12 [Ex. 131, (5R,6R)-2-(2-(1-iminoethylamino)-ethyl)thio-6-((S)-1-hydroxypropyl)penem-3-carboxylic acid]	6.25 µg/mL (≈ 18.1 µM)	6.25 µg/mL (≈ 18.1 µM)	0.78 µg/mL (≈ 2.26 µM)	0.1 µg/mL (≈ 0.289 µM)	
CC[C@H](O)[C@@H]1C(=O)N2C(C(=O)O)=C(SCCNC(=N)c3ccccc3)S[C@H]12 [Ex. 132, (5R,6R)-2-(2-(α-iminobenzyl)-aminoethyl)thio-6-((S)-1-hydroxypropyl)penem-3-carboxylic acid]	6.25 µg/mL (≈ 15.3 µM)	6.25 µg/mL (≈ 15.3 µM)	1.56 µg/mL (≈ 3.83 µM)	0.1 µg/mL (≈ 0.245 µM)	
CC[C@H](O)[C@@H]1C(=O)N2C(C(=O)O)=C(SCCC(=O)Nc3ccccc3)S[C@H]12 [Ex. 134, (5R,6R)-6-((S)-1-hydroxypropyl)-2-(2-phenylaminocarbonylethyl)thiopenem-3-carboxylic acid]	6.25 µg/mL (≈ 15.3 µM)	6.25 µg/mL (≈ 15.3 µM)	12.5 µg/mL (≈ 30.6 µM)	0.39 µg/mL (≈ 0.955 µM)	
CC[C@H](O)[C@@H]1C(=O)N2C(C(=O)O)=C(SCCN)S[C@H]12 [Ex. 140, (5R,6R)-2-(2-aminoethyl)thio-6-((S)-1-hydroxypropyl)penem-3-carboxylic acid]	6.25 µg/mL (≈ 20.5 µM)	6.25 µg/mL (≈ 20.5 µM)	0.73 µg/mL (≈ 2.4 µM)	0.1 µg/mL (≈ 0.329 µM)	
CC[C@H](O)[C@@H]1C(=O)N2C(C(=O)O)=C(SCCN(C)CC(=O)c3ccccc3)S[C@H]12 [Ex. 142, (5R,6R)-6-((S)-1-hydroxypropyl)-2-(2-(N-methyl-N-phenacylamino)ethyl)thiopenem-3-carboxylic acid]	6.25 µg/mL (≈ 14.3 µM)	6.25 µg/mL (≈ 14.3 µM)	0.78 µg/mL (≈ 1.79 µM)	0.1 µg/mL (≈ 0.229 µM)	
CC[C@H](O)[C@@H]1C(=O)N2C(C(=O)O)=C(SCCN3CCCC3)S[C@H]12 [Ex. 143, (5R,6R)-6-((S)-1-hydroxypropyl)-2-(2-(pyrrolidin-1-yl)ethyl)thiopenem-3-carboxylic acid]	6.25 µg/mL (≈ 17.4 µM)	6.25 µg/mL (≈ 17.4 µM)	3.13 µg/mL (≈ 8.73 µM)	0.39 µg/mL (≈ 1.09 µM)	
CC[C@H](O)[C@@H]1C(=O)N2C(C(=O)O)=C(SCCn3cccc3)S[C@H]12 [Ex. 147, (5R,6R)-6-((S)-1-hydroxypropyl)-2-(2-(1-pyrrolyl)ethyl)thiopenem-3-carboxylic acid]	3.13 µg/mL (≈ 8.83 µM)	3.13 µg/mL (≈ 8.83 µM)	6.25 µg/mL (≈ 17.6 µM)	0.2 µg/mL (≈ 0.564 µM)	
